Read-outs that look alike come from different tables or passages of the source.
How the values were obtained:
RTgill-W1 cells [1] = assay type: cell-based, rainbow trout, Oncorhynchus mykiss
RTgill-W1 cells [2] = assay: Long-term storage testing of RTgill-W1 fluidic biochips with PCP exposure (ECIS); assay type: cell-based, rainbow trout, Oncorhynchus mykiss; conditions: 9.4 μM
Method: The following description provides an example of a method for long-term testing of RTgill-W1 fluidic biochips according to an embodiment of the invention. In order to study the effects of cold storage with no media replenishment on the viability and sensitivity of the RTgill-W1 cells, fluidic biochips are seeded, held at 20° C., and media changes are performed on days 4 and 7 as described above, then held at 6° C. with no media replenishment for up to one year. Three chips are removed for viability assessment and ECIS testing using the 9.4 μM detection level for PCP (FIG. 1) at 4, 8, 12, 16, 20, 24, 32, 38, and 52 weeks and the chemical exposure procedure described above.
The following description provides an example of a method for statistical analysis according to an embodiment of the invention. A curve discrimination program using MATLAB (available from The MathWorks, Inc., Natick, Mass.) is used to perform the statistical analysis. […] This program analyzes impedance data from control and toxicant-exposed cells every minute during a 60 minute window. The overall difference between the two groups of curves is compared at each time point, and the difference between their averages is assessed relative to the within-group variability. A confidence level of […] (p<0.001) is used to establish statistical significance. Functional data analysis techniques are used to extend the standard single time point analysis of variance approach to a curve consisting of approximately 60 points. The lowest toxicant concentrations that cause a significant change in impedance in at least ten consecutive time intervals over a 60 minute period are reported as the detection levels in FIG. 1.
Unfed RTgill-W1 cells are maintained at 6° C. for different durations and subsequently tested with PCP exposures at 9.4 μM. […] The line with triangle data points and the line with square data points show, respectively, 1-hour and 4-hour average of response difference between the control and treatment channels at each respective storage time for 3 replicate fluidic biochips. Significance at each time point (p<0.001) is depicted by an * and requires a positive detection for all 3 replicate chips using the curve discrimination program. […] If the impedance patterns shown for the 12° C. and 20° C. chips are predictive indicators of the impedance patterns of the 6° C. chips, the 6° C. chips may remain viable for approximately 18 months, but most likely not beyond 2 years of storage.

[3] = one hour exposure, MEG = Military Exposure Guideline, HLC = Human Lethal Concentration, ECIS impedance

| Compound | chips in which the chemical is detected (RTgill-W1 cells [1]; at levels above the HLC) | concentration at which the chemical is detected, relative to MEG and HLC (RTgill-W1 cells [1]; [3]) | change in impedance compared to controls (RTgill-W1 cells [1]) | concentration at which the chemical is detected, relative to MEG and HLC (RTgill-W1 cells [1]) | other results |
| --- | --- | --- | --- | --- | --- |
| C=CC#N [Acrylonitrile, acrylonitrile] | 3 out of 3 | above the HLC | – | – | – |
| CNC(=O)O/N=C/C(C)(C)SC [aldicarb] | 3 out of 3 | above the HLC | – | – | – |
| Cl.N [ammonia, ammonium chloride] | – | – | – | – | change in impedance compared to controls (RTgill-W1 cells [1]; one hour exposure, p<0.001): significant decrease |
| [N-]=[N+]=[N-] [azide] | – | – | significant decrease | between the MEG and the HLC | – |
| O=S(=O)([O-])[O-].[Cu+2] [copper, copper sulfate] | – | – | increased impedance | between the MEG and the HLC | – |
| O=C([O-])CF.[Na+] [fluoroacetate, sodium fluoroacetate] | – | – | – | above the HLC | chips in which the chemical is detected (RTgill-W1 cells [1]): 3 out of 3 |
| COP(N)(=O)SC (stereo not drawn) [methamidophos] | 3 out of 3 | above the HLC | – | – | – |
| COP(=S)(OC)Oc1ccc([N+](=O)[O-])cc1 [methyl parathion] | – | – | significant decrease | between the MEG and the HLC | – |
| CN1CCCC1c1cccnc1 (stereo not drawn) [nicotine] | – | – | – | above the HLC | chips in which the chemical is detected (RTgill-W1 cells [1]): 3 out of 3 |
| C[n+]1ccc(-c2cc[n+](C)cc2)cc1 [paraquat, paraquat dichloride] | 3 out of 3 | above the HLC | – | – | – |
| Oc1c(Cl)c(Cl)c(Cl)c(Cl)c1Cl [pentachlorophenate, sodium pentachlorophenate] | – | between the MEG and the HLC | – | – | detection level (RTgill-W1 cells [1]; lowest concentration causing significant impedance change in at least ten consecutive time intervals over 60 minutes): 9.4 µM; change in impedance compared to controls (RTgill-W1 cells [1]; one hour exposure, p<0.001): significant decrease; responsiveness after one year storage (RTgill-W1 cells [2]; 1 hour and 4 hour exposures, one year storage at 6° C.): significantly responsive; response to PCP exposure (RTgill-W1 cells [2]; chips stored at 6° C. unfed, all storage time points indicated): positive response; significance of response, 4 hours exposure (RTgill-W1 cells [2]; storage at 6° C., additional at 140 and 266 days, p<0.001, 3 replicate chips): significant responses; significance of response, 1 hour exposure (RTgill-W1 cells [2]; storage at 6° C., time points of 14-114 days and 364 days, p<0.001, 3 replicate chips): significant |
| Oc1ccccc1 [phenol] | – | – | – | above the HLC | chips in which the chemical is detected (RTgill-W1 cells [1]): 3 out of 3 |
| O=S(=O)([O-])[O-].[Tl+].[Tl+] [thallium, thallium sulfate] | 3 out of 3 | above the HLC | – | – | – |
| Cc1ccccc1 [toluene] | – | – | significant decrease | between the MEG and the HLC | – |
| mercuric chloride [mercury] | – | – | significant decrease | between the MEG and the HLC | – |
| sodium arsenite [arsenic] | – | – | significant decrease | between the MEG and the HLC | – |

Source: US20120156715A1, “Environmental Sentinel Biomonitor System (ESB)” (priority 2010, published 2012)
